For assay [1], the target named is T1, GPR34-expressed CHO cells (Homo sapiens, UniProt Q9UPC5).
T1 construct: expressed in transfected cells
Briefly: Intracellular cAMP production inhibitory activity using GPR34-expressed CHO cells (forskolin-stimulated, cAMP EIA). In kind it is cell-based. To be noted: 2 μM forskolin, FIG. 1. The protocol:
The GPR34-expressed CHO cells prepared in (1-2) described above and selected in (1-2) described above were plated on a 24-well plate in 6×10^4 cells/well followed by incubation for 48 hours. The cells were washed with αMEM medium (pH 7.5) containing 0.2 mM 3-isobutyl-methylxanthine, 0.05% BSA and 20 mM HEPES (hereinafter αMEM medium (pH 7.5) containing 0.2 mM 3-isobutyl-methylxanthine, 0.05% BSA and 20 mM HEPES is referred to as the reaction buffer). Thereafter, 0.5 mL of the reaction buffer was added and the mixture was kept warm for 30 minutes in an incubator. The reaction buffer was removed and 0.25 mL of fresh reaction buffer was replenished to the cells. Then, 0.25 mL of the reaction buffer containing a sample and 2 μM forskolin was added to the cells, followed by reacting at 37° C. for 30 minutes. […] The cAMP level in the extract was quantified using the same kit. Based on this measurement data, the cAMP production inhibitory activity was calculated based on the equation shown below and expressed in terms of percentage to the control group. The activity in the group added with sample was calculated using each control value set on the same plate. % of control=(X−C)/(T−C)×100 wherein • X: cAMP level in the group added with sample • T: mean value of the cAMP levels in 3 wells of the groups without sample addition and with forskolin stimulation […]
(Changes in cAMP serve as a functional read-out for many G protein-coupled receptors.)

The subject of assay [2] is other receptor expression cells. Put plainly: cAMP production inhibitory activity on other receptor expression cells (specificity check). In kind it is cell-based. To be noted: receptor-specific. The protocol:
The amino acid sequence of GPR34 is known to have low homology to the amino acid sequence of the platelet-activating factor receptor or the uridine diphosphate glycoside. Thus, various compounds including platelet-activating factor and uridine diphosphate glycoside, which are ligands to the receptors showing homology to GPR34, were administered to the GPR34-expressed CHO cells to examine the cAMP production inhibitory activity of these compounds on the GPR34-expressed CHO cells by the method shown in (1-4) described above.
The effect was not noted on the other receptor expression cells but was receptor-specific.

T1 sequence (Q9UPC5 whole entry): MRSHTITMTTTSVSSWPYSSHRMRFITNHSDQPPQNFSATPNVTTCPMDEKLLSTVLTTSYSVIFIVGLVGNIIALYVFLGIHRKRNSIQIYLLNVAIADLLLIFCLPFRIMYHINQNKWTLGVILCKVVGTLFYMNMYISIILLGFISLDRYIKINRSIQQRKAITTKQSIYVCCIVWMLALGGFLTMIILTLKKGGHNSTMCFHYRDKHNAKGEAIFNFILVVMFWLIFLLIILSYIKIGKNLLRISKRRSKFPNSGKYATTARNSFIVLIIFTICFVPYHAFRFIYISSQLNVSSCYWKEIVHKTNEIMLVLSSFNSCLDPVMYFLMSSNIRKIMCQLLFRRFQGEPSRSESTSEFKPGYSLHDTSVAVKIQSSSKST

With lysophosphatidylserine, the “cAMP production inhibitory activity” value in assay [1] (37° C. 30 minutes) was “marked activities”. Further, the “cAMP production inhibitory effect on other receptor expression cells” value in assay [2] was “not noted”.

For the substance phosphatidylserine, in assay [1] (in a higher concentration), the “cAMP production inhibitory activity” value is listed as “marked activities”. Besides, the “cAMP production inhibitory effect on other receptor expression cells” value in assay [2] is reported as “not noted”.

These data come from patent US7202040B2, “Method for screening compounds which change the binding properties of a protein with a ligand” (Takeda Pharmaceutical Company Limited, priority 2001, dated 2007).
